{"source": "patent US8933019B2", "about": "“Antiviral cell-penetrating peptides” (priority 2008, dated 2015)", "key": {"[1]": {"experiment": "Solubility, observation in the Jurkat cytotoxicity test", "assay_type": "physicochemical", "procedure": "Cytotoxicity was also evaluated in Jurkat cells using a Promega LDH leakage detection kit. Jurkat cells were plated at 10^4 cells/well in a volume of 200 μl. The test was performed after 30 min, 2 hr and 4 hr of exposure to the NYAD-201, NYAD-202 and NYAD-203 compounds."}, "[2]": {"experiment": "Cytotoxicity, XTT method, MT-2 cells", "assay_type": "cell-based, human", "details": "human, read-out: CC50 (μM) ± SD, cytotoxicity in MT-2 cells", "procedure": "(§1) Cytotoxicity of peptides in MT-2 cells and PBMC was measured by the XTT [(sodium 3′-(1-(phenylamino)-carbonyl)-3,4-tetrazolium-bis(4-methoxy-6-nitro) bezenesulfonic acid hydrate)] method as previously described (Jiang et al., 2004). Briefly, for MT-2 cells, 100 μl of a peptide at graded concentrations was added to an equal volume of cells (1×10^5 cells/ml) in 96-well plates followed by incubation at 37° C. for 4 days, which ran parallel to the neutralization assay in MT-2 (except medium was added instead of virus). In the case of PBMC, 5×10^5 cells/ml were used and the cytotoxicity was measured after 7 days. After addition of XTT (PolySciences, Inc.), the soluble intracellular formazan was quantitated colorimetrically at 450 nm 4 hr later with a reference at 620 nm. The percent of cytotoxicity and the CC50 values were calculated as above (Table 2 and Table 3)."}, "[3]": {"test_system": "MT-2 cells", "experiment": "Cytotoxicity, XTT method, MT-2 cells", "assay_type": "cell-based, human", "details": "4 days", "procedure": "as §1"}, "[4]": {"test_system": "HIV-1 IIIB", "experiment": "Release and infectivity of HIV-1 virus released from infected MT-2 cells after treatment", "assay_type": "cell-based", "details": "lower dose 6.25 μg/ml, normalized for p24, TCID50", "procedure": "On the fourth day post-infection, the supernatants were collected and filtered with a 0.45 μm PVDF membrane. One aliquot of the supernatants from each sample was mixed 1:1 with a solution of 5% Triton X-100 for p24 quantification, and stored at 4° C., another aliquot was immediately frozen at −80° C. and used to compare the infectivity of the viral particles released by NYAD-201 and NYAD-202 treated cells to the viral particles released by untreated cells. The protein p24 was first quantified by sandwich-ELISA, then the viral samples were normalized for the p24 content and titered to calculate the TCID50. MT-2 cells were infected with a two fold dilutions of virus from NYAD-201 and NYAD-202 treated and untreated cells. […] On the fourth day post infection supernatants were collected for p24 quantification by sandwich-ELISA and the TCID50 was calculated by the Spearman-Karber statistical method. […]\nFor these reasons, not only the quantity but also the quality of the viral particles released in the supernatant was evaluated. First, the p24/viral particles released in the supernatant following NYAD-201 and NYAD-202 treatment were quantified, then starting with the same amount of p24 per sample, the viruses released in the supernatant were titered. The TCID50 was calculated and expressed as percentage infectivity with respect to the untreated positive control. […]"}, "[5]": {"experiment": "Cytotoxicity, XTT method, PBMC", "assay_type": "cell-based", "details": "human", "procedure": "as §1"}, "[6]": {"test_system": "HIV-1 BaL", "assay_type": "cell-based", "details": "laboratory strain, subtype B, PBMC, coreceptor R5; read-out: IC50 (μM ± SD), HIV-1 BaL", "procedure": "(§2) The inhibitory activity of peptides on infection by primary HIV-1 isolates was determined as previously described (Jiang et al., Antimicrob. Agents Chemother. 48:4349-4359, 2004). Peripheral blood mononuclear cells (PBMCs) were isolated from the blood of healthy donors at the New York Blood Center by standard density gradient centrifugation using Histopaque-1077 (Sigma-Aldrich). The cells were cultured at 37° C. for 2 hr. Nonadherent cells were collected and resuspended at 5×10^6 cells/ml RPMI-1640 medium containing 10% FBS, 5 μg/ml PHA, and 100 U/ml IL-2 (Sigma-Aldrich), followed by incubation at 37° C. for 3 days. The PHA-stimulated cells (5×10^4 cells/well) were infected with primary HIV-1 isolates at 500 TCID50 (0.01 MOI) in the absence or presence of peptide inhibitor at graded concentrations. Culture media were changed every 3 days and replaced with fresh media containing freshly prepared inhibitor. The supernatants were collected 7 days post-infection and tested for p24 antigen by ELISA (FIG. 6). The percent inhibition of p24 production, IC50 and IC90 values were calculated by the GraphPad Prism software (GraphPad Software Inc.).\n(§3) In addition, NYAD-201, NYAD-202 and NYAD-203 were also tested using several laboratory-adapted and primary isolates in MT-2 cells and PBMC (peripheral blood mononuclear cells), respectively. The inhibition of p24 production in MT-2 cells by NYAD-201 and its analogs were measured over a range of concentrations and the concentration required to inhibit 50% (IC50) of the p24 production was calculated. […] NYAD-201 and its analogs inhibited the laboratory strains with low μM potency (IC50˜2-8 μM), and both R5- and X4-tropic viruses were inhibited with similar potency."}, "[7]": {"test_system": "HIV-1 89.6", "assay_type": "cell-based", "details": "laboratory strain, subtype B, PBMC, coreceptor R5X4; read-out: IC50 (μM ± SD), HIV-1 89.6", "procedure": "as §2, §3"}}, "note": "Bridge positions count the residues as written; N and C are the ends. Square brackets hold non-standard residues; d marks the D form. Peptide text beside a SMILES is read from it. S5 = C=CCCC[C@](C)(N)C(=O)O", "data": [{"smiles": "CSCC[C@@H]1NC(=O)[C@H](Cc2c[nH]c3ccccc23)NC(=O)[C@@](C)(NC(=O)[C@H](CCCCN)NC(=O)[C@@H](NC(=O)[C@H](CCC(=O)O)NC(=O)[C@H](CCC(N)=O)NC(=O)[C@H](C)N)C(C)C)CCCC=CCCC[C@@](C)(C(=O)N[C@H](C(=O)N[C@@H](CC(C)C)C(=O)N[C@@H](CC(C)C)C(=O)N[C@H](C(=O)N[C@@H](C)C(N)=O)C(C)C)[C@@H](C)O)NC(=O)[C@H]([C@@H](C)O)NC1=O", "note": "[NYAD-201, AQEVKXWMTXTLLVA] (H-AQEVK[S5]WMT[S5]TLLVA-NH2; staple 6-10)", "values": [{"measurement": "Solubility", "setting": "[1]", "result": "not very soluble"}, {"measurement": "CC50 at 4 days", "setting": "[2]", "result": "> 115", "unit": "µM"}, {"measurement": "CC50", "setting": "[3]", "result": "> 115", "unit": "µM"}, {"measurement": "Percentage infectivity of virus produced by treated cells with respect to untreated control", "setting": "[4]", "result": 50, "unit": "%"}, {"measurement": "CC50 at 7 days", "setting": "[5]", "result": "> 115", "unit": "µM"}, {"measurement": "IC50", "setting": "[6]", "result": "4.73 ± 1.92", "unit": "µM"}, {"measurement": "IC50", "setting": "[7]", "result": "5.21 ± 0.87", "unit": "µM"}]}]}
